Results: patent US10912850B2, “18F-FNDP for pet imaging of soluble epoxide hydrolase (sEH)” (THE JOHNS HOPKINS UNIVERSITY, priority 2016, dated 2021)
Where “and” joins values, the source holds several entries; their conditions need not be identical. Identical values can stand only once. Like-named read-outs stand apart in the source and are kept apart here.

Tests used:
[1] = Molecular properties (log P); type: physicochemical
[2] = system: sEH; assay: Baboon dynamic PET imaging, baseline and blocking (SUV, VT, K1); conditions: for Time of regional TAC peak: post-injection; for Average K1 (rate constant for transfer from arterial plasma to tissue): two-tissue-three-compartment model
Procedure: Dynamic baseline and blocking PET experiments (90 min) were performed on three male baboons (Papio anubis) weighing 23.9, 25.0 and 28.2 kg, using the High Resolution Research Tomograph (HRRT, CPS Innovations, Inc., Knoxville, Tenn.). […] Radiometabolite analysis in baboon arterial blood was performed under the general conditions published previously (Hilton et al., Nucl. Med. Biol., 2000).
PET experiments were performed on a male baboon (Papio anubis) weighing 28.2 kg, using the High Resolution Research Tomograph (HRRT, CPS Innovations, Inc., Knoxville, Tenn.). The animal underwent one baseline PET scan and one blocking scan 3 weeks later. The animal was fasted for 12 h prior to each PET study. Anesthesia was induced with intramuscular ketamine (7.5-10 mg/kg) and maintained with a continuous intravenous infusion of propofol at 0.3-0.4 mg/kg/min throughout the PET experiment. One venous catheter was inserted for the radioligand injection, and one arterial catheter inserted to obtain arterial blood samples. Measurement of the arterial plasma input function was conducted through collection of 43 blood samples over the course of the 90 min dynamic PET scan. The baboon was also intubated to facilitate respiration, and circulatory volume was maintained by constant infusion of isotonic saline. Physiological vital signs including heart rate, blood pressure, electrocardiogram, and oxygen saturation were monitored continuously throughout the study.
The animal was positioned in the PET scanner with the head immobilized with a thermoplastic mask. A 6 min transmission scan was acquired using a rotating [^137Cs] cesium source for attenuation correction.
The 90 min PET list mode data were binned into 22 frames (three 20 s, two 30 s, two 1 min, three 2 min, eight 5 min, and four 10 min frames). The data were then reconstructed using the iterative ordered subsets expectation maximization (OS-EM) algorithm (with six iterations and 16 subsets), with correction for radioactive decay, dead time, attenuation, scatter and randoms. The attenuation maps were generated from 6 min transmission scans performed with a [^137Cs] cesium point source prior to the emission scans. The reconstructed image space consisted of cubic voxels, each 1.22 mm^3 in size, and spanning dimensions of 31 cm×31 cm (transaxially) and 25 cm (axially).
The software package PMOD (v3.3, PMOD Technologies Ltd, Zurich, Switzerland) was used for the following image processing and subsequent kinetic analysis steps. The previously acquired brain MRI T1-weighted images for the baboon were co-registered to the reconstructed dynamic PET images acquired in this study. Through manually matching the co-registered MRI to the INIA19 Template and NeuroMaps Atlas for Primate Brain Image Parcellation and Spatial Normalization (Rohlfing et al., Frontiers in neuroinformatics, 2012), 13 representative baboon brain VOIs were defined, including frontal and temporal gyms, thalamus, hippocampus, caudate, putamen, amygdala, globus pallidus, insula, hypothalamus, cerebellum, corpus callosum, and white matter. Brain regional TACs were then generated for both baseline and blocking PET scans using those VOIs.
Following the consensus nomenclature for in vivo imaging of reversibly binding radioligands (Innis et al., J. Cereb. Blood Flow Metab., 2007), due to the lack of a non-displaceable reference region, the main outcome measure was regional distribution volume (VT), defined as the ratio of the concentration of the radioligand in regional brain tissue to that in plasma at equilibrium. Regional VT is proportional to the receptor density in the defined VOL VT was calculated using the Logan graphical method for each VOI (Logan et al., J. Cereb. Blood Flow Metab., 1990).

[3] = Baseline regional brain biodistribution of 18F-FNDP in CD-1 mice; type: in vivo; conditions: for Regional distribution in CD-1 mouse brain (mean % ID/g tissue ± SD): n=3
Procedure: Baseline study in CD1 mice. […] The brains were removed and dissected on ice. Striatum, cortex, hippocampus, hypothalamus, cerebellum and the rest of brain were weighed and their radioactivity content was determined in a γ-counter LKB/Wallac 1283 CompuGamma CS (Perkin Elmer, Bridgeport, Conn.). Aliquots of the injectate were prepared as standards and their radioactivity content was determined along with the tissue samples. The percent of injected dose per gram of tissue (% ID/g tissue) was calculated.

[4] = target: T1, sEH (Mus musculus, UniProt P34914); assay: Blocking of 18F-FNDP binding in CD-1 mice with nor-fluoro-FNDP (dose escalation); type: in vivo
T1 construct: from tissue; host or cells: brain of living CD-1 mice (striatum, cortex, hippocampus, cerebellum)
T1 sequence (P34914 1-554): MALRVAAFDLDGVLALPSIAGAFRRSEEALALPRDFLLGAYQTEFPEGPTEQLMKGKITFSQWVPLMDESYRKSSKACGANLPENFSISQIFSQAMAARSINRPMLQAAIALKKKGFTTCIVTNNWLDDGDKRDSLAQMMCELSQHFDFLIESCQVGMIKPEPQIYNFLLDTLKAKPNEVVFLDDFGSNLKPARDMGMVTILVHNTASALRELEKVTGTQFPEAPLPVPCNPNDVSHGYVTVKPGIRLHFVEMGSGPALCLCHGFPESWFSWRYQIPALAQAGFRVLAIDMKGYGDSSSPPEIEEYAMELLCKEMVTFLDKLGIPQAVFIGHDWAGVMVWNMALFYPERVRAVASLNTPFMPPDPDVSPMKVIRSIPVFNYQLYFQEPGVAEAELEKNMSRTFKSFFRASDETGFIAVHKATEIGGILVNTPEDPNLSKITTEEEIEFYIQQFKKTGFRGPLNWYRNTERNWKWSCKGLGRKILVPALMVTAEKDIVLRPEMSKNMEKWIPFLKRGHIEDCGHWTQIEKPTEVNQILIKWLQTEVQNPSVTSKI
Procedure: Ninety minutes after administration of the radiotracer the animals were sacrificed by cervical dislocation, brain tissues were harvested, and their radioactivity content was determined.

[5] = Radiometabolite HPLC analysis of baboon arterial plasma; type: in vivo, Papio anubis (baboon); conditions: 90 min post-injection
Procedure: Baboon arterial blood samples were collected at very short intervals (<5 s) initially and gradually at prolonged intervals throughout the PET study for determination of plasma radioactivity. […] Med. Biol., 2000). […] The effluent from the capture column, containing only highly polar components, flowed through a dual BGO detector (Bioscan, Washington, D.C.). The solvent was then switched to a mixture of 60% acetonitrile/40% 0.1 M aqueous ammonium formate pH=2.7 (2 mL/min) to elute the radiolabeled components bound to the capture column onto the analytical column (Gemini C18, 4.6×254 mm, Phenomenex, Torrance, Calif.).

[6] = system: sEH; type: in vivo, mice (sEH-KO, C57BL/6); conditions: for Regional uptake, baseline: C57BL6 control mice, 60 min post-injection
Procedure: All animals were sacrificed at 60 min after radiotracer injection.

## O=C(NCCC(c1ccccc1)c1ccccc1)c1ccc(F)nc1 [FNDP, N-(3,3-diphenylpropyl)-6-fluoronicotinamide]
[1]
  log P: 2.9

## O=C(NCCC(c1ccccc1)c1ccccc1)c1ccc([18F])nc1 [^18F-FNDP, N-(3,3-diphenylpropyl)-6-^18F-fluoronicotinamide]
[2]; baboon PET, all regions
  Blockade of brain uptake: 95%
[2]; baboon blocking study (nor-fluoro-FNDP 2 mg/kg s.c.)
  Time of regional TAC peak: about 1 min
[2]; baboon blocking study, end of 90 min scan
  Average SUV at the end of the scan: 0.18 g/mL
[2]; baboon brain
  Brain SUV: 4
[2]; baboon brain, baseline scan
  Time of regional TAC peak: about 5 min
[2]; baboon, baseline scan
  Peak SUV of the entire brain: 3.2
[2]; baboon, baseline, end of 90 min dynamic scan
  SUV of the entire brain at the end of the scan: 1.8
[2]; baboon, baseline
  Average K1 (rate constant for transfer from arterial plasma to tissue): 0.18 ml/cm^3/min
[2]; baboon, blocking
  Average K1 (rate constant for transfer from arterial plasma to tissue): 0.14 ml/cm^3/min
[2]; baboon, cerebellum
  Reduction of VT, blocking vs baseline: 93%
[2]; baboon, end of 90 min scan
  Average SUV at end of blocking scan as percent of the baseline value: 10%
[2]; baboon, insula and amygdala
  Reduction of VT, blocking vs baseline: 95%
[2]; both animal species (mouse and baboon)
  Specificity of sEH radiolabeling: up to 95%
[3]; CD-1 mice, at peak uptake
  Peak brain uptake: 5.2 percent injected dose per gram of tissue
[3]; Cerebellum, 5 min
  Regional distribution in CD-1 mouse brain (mean % ID/g tissue ± SD): 2.75 ± 0.11 % ID/g tissue
[3]; Cerebellum, 15 min
  Regional distribution in CD-1 mouse brain (mean % ID/g tissue ± SD): 1.31 ± 1.01 % ID/g tissue
[3]; Cerebellum, 30 min
  Regional distribution in CD-1 mouse brain (mean % ID/g tissue ± SD): 1.09 ± 0.16 % ID/g tissue
[3]; Cerebellum, 60 min
  Regional distribution in CD-1 mouse brain (mean % ID/g tissue ± SD): 0.52 ± 0.07 % ID/g tissue
[3]; Cerebellum, 90 min
  Regional distribution in CD-1 mouse brain (mean % ID/g tissue ± SD): 0.29 ± 0.04 % ID/g tissue
[3]; Cortex, 5 min
  Regional distribution in CD-1 mouse brain (mean % ID/g tissue ± SD): 4.69 ± 0.21 % ID/g tissue
[3]; Cortex, 15 min
  Regional distribution in CD-1 mouse brain (mean % ID/g tissue ± SD): 2.92 ± 0.36 % ID/g tissue
[3]; Cortex, 30 min
  Regional distribution in CD-1 mouse brain (mean % ID/g tissue ± SD): 2.07 ± 0.05 % ID/g tissue
[3]; Cortex, 60 min
  Regional distribution in CD-1 mouse brain (mean % ID/g tissue ± SD): 0.87 ± 0.14 % ID/g tissue
[3]; Cortex, 90 min
  Regional distribution in CD-1 mouse brain (mean % ID/g tissue ± SD): 0.45 ± 0.05 % ID/g tissue
[3]; Hippocampus, 5 min
  Regional distribution in CD-1 mouse brain (mean % ID/g tissue ± SD): 3.29 ± 0.54 % ID/g tissue
[3]; Hippocampus, 15 min
  Regional distribution in CD-1 mouse brain (mean % ID/g tissue ± SD): 2.51 ± 0.34 % ID/g tissue
[3]; Hippocampus, 30 min
  Regional distribution in CD-1 mouse brain (mean % ID/g tissue ± SD): 1.76 ± 0.15 % ID/g tissue
[3]; Hippocampus, 60 min
  Regional distribution in CD-1 mouse brain (mean % ID/g tissue ± SD): 0.81 ± 0.15 % ID/g tissue
[3]; Hippocampus, 90 min
  Regional distribution in CD-1 mouse brain (mean % ID/g tissue ± SD): 0.43 ± 0.06 % ID/g tissue
[3]; Hypothalamus, 5 min
  Regional distribution in CD-1 mouse brain (mean % ID/g tissue ± SD): 2.59 ± 0.18 % ID/g tissue
[3]; Hypothalamus, 15 min
  Regional distribution in CD-1 mouse brain (mean % ID/g tissue ± SD): 1.66 ± 0.28 % ID/g tissue
[3]; Hypothalamus, 30 min
  Regional distribution in CD-1 mouse brain (mean % ID/g tissue ± SD): 1.04 ± 0.08 % ID/g tissue
[3]; Hypothalamus, 60 min
  Regional distribution in CD-1 mouse brain (mean % ID/g tissue ± SD): 0.51 ± 0.07 % ID/g tissue
[3]; Hypothalamus, 90 min
  Regional distribution in CD-1 mouse brain (mean % ID/g tissue ± SD): 0.31 ± 0.05 % ID/g tissue
[3]; Rest of brain, 5 min
  Regional distribution in CD-1 mouse brain (mean % ID/g tissue ± SD): 3.53 ± 0.11 % ID/g tissue
[3]; Rest of brain, 15 min
  Regional distribution in CD-1 mouse brain (mean % ID/g tissue ± SD): 2.37 ± 0.34 % ID/g tissue
[3]; Rest of brain, 30 min
  Regional distribution in CD-1 mouse brain (mean % ID/g tissue ± SD): 1.64 ± 0.06 % ID/g tissue
[3]; Rest of brain, 60 min
  Regional distribution in CD-1 mouse brain (mean % ID/g tissue ± SD): 0.71 ± 0.10 % ID/g tissue
[3]; Rest of brain, 90 min
  Regional distribution in CD-1 mouse brain (mean % ID/g tissue ± SD): 0.38 ± 0.04 % ID/g tissue
[3]; Striatum, 5 min
  Regional distribution in CD-1 mouse brain (mean % ID/g tissue ± SD): 5.24 ± 0.45 % ID/g tissue
[3]; Striatum, 15 min
  Regional distribution in CD-1 mouse brain (mean % ID/g tissue ± SD): 3.29 ± 0.36 % ID/g tissue
[3]; Striatum, 30 min
  Regional distribution in CD-1 mouse brain (mean % ID/g tissue ± SD): 2.32 ± 0.15 % ID/g tissue
[3]; Striatum, 60 min
  Regional distribution in CD-1 mouse brain (mean % ID/g tissue ± SD): 1.07 ± 0.14 % ID/g tissue
[3]; Striatum, 90 min
  Regional distribution in CD-1 mouse brain (mean % ID/g tissue ± SD): 0.54 ± 0.07 % ID/g tissue
[3]; mouse brain, peak (5 min post-injection)
  Peak brain uptake value: 5.2 % ID/g and 5 % ID/g
[4]; CD-1 mouse brain, blocker nor-fluoro-FNDP
  Residual (non-specific) binding at the high dose of the blocker: 10%
[4]; mice, all brain regions, pre-treatment with sEH inhibitor
  Blockade of uptake: 80-90%
[4]; two strains of control mice (CD-1 and C57BL/6)
  Degree of specificity of cerebral sEH labeling: 80-90%
[5]
  Parent compound remaining in plasma: 20%
[6]; cerebellum
  Regional uptake, baseline: 0.5 % ID/g
[6]; striatum, hippocampus and cortex
  Regional uptake, baseline: about 1 % ID/g
[6]; C57BL6 mice, all regions studied, nor-fluoro-FNDP 1 mg/kg s.c., 60 min
  Brain uptake, blocking experiment: ~0.2 % ID/g tissue
[6]; C57BL/6 controls, nor-fluoro-FNDP 1 mg/kg s.c.
  Blocking effect: about 80%
[6]; baseline, 60 min after radiotracer injection, C57BL/6 controls
  Reduction of uptake in sEH-KO mice as compared with controls: about 90%
[6]; sEH-KO mice
  Radiotracer uptake in sEH-KO mice: Minimal
[6]; sEH-KO mice, 60 min
  Regional brain uptake, baseline: 0.11-0.12 % ID/g
[6]; sEH-KO mice, blocker nor-fluoro-FNDP
  Reduction of uptake in blockade study: negligible
[6]; sEH-KO mice, nor-fluoro-FNDP 1 mg/kg s.c., 60 min
  Regional brain uptake, blocking: 0.10-0.11 % ID/g
[6]; sEH-KO vs controls
  Brain uptake in sEH-KO mice lower than in controls: 10 fold
